Measurements from ChEMBL document CHEMBL1143504, “Structure-based design of derivatives of tyropeptin A as the potent and selective inhibitors of mammalian 20S proteasome” (Bioorg Med Chem Lett, 2005).
pIC50: −log10 of the molar value. Where a SMILES comes first, the peptide text is derived from it. [ ]: non-standard residue; d: D form. The star is where a group is joined. ξ: configuration not given here. ξY = NC(Cc1ccc(O)cc1)C(=O)O; Isovaleryl = CC(C)CC(=O)*; Hexanoyl = CCCCCC(=O)*; PhAc = O=C(Cc1ccccc1)*

Assays:
Type in all cases: functional, subcellular
[1] = biological target: 20S proteasome; experiment: Inhibitory concentration to inhibit chymotrypsin-like activity of 20S proteasome prepared from human leukemia HL-60 cells was determined
[2] = biological target: 20S proteasome; experiment: Inhibitory concentration to inhibit the PGPH activity of 20S proteasome prepared from human leukemia HL-60 cells was determined
[3] = biological target: 20S proteasome; experiment: Inhibitory concentration to inhibit trypsin-like activity of 20S proteasome from human leukemia HL-60 cells was determined

Structure (SMILES)	pIC50 [1]	pIC50 [2]	pIC50 [3]
CC(C)[C@H](NC(=O)[C@H](Cc1ccc(O)cc1)NC(=O)Cc1ccc2ccccc2c1)C(=O)NC(C=O)Cc1ccc(O)cc1 (stereo partly specified)	7.85	5.33	6.15
CC(C)[C@H](NC(=O)[C@H](Cc1ccc(O)cc1)NC(=O)Cc1cccc2ccccc12)C(=O)NC(C=O)Cc1ccc(O)cc1 (stereo partly specified)	8.15	5.31	5.92
COc1ccc(C[C@@H](C=O)NC(=O)[C@@H](NC(=O)[C@H](Cc2ccc(OC)cc2)NC(=O)CN(C)C)C(C)C)cc1	5.92	< 4.00	5.11
COc1ccc(CC(C=O)NC(=O)[C@@H](NC(=O)[C@H](Cc2ccc(O)cc2)NC(=O)Cc2cccc3ccccc23)C(C)C)cc1 (stereo partly specified)	7.74	4.42	5.22
CC(C)[C@H](NC(=O)[C@H](Cc1ccc(O)cc1)NC(=O)CC1CCCCC1)C(=O)NC(C=O)Cc1ccc(O)cc1 (stereo partly specified)	6.48	4.77	5.52
COc1ccc(CC(C=O)NC(=O)[C@@H](NC(=O)[C@H](Cc2ccc(OC)cc2)NC(=O)Cc2cccc3ccccc23)C(C)C)cc1 (stereo partly specified)	7.57	< 4.00	< 4.00
COc1ccc(C[C@H](NC(=O)Cc2cccc3ccccc23)C(=O)N[C@H](C(=O)NC(C=O)Cc2ccc(O)cc2)C(C)C)cc1 (stereo partly specified)	7.70	4.51	5.22
CCCCCC(=O)N[C@@H](Cc1ccc(O)cc1)C(=O)N[C@H](C(=O)NC(C=O)Cc1ccc(O)cc1)C(C)C (stereo partly drawn) (Hexanoyl-Tyr-Val-[ξY]-aldehyde)	7.43	4.70	5.70
COc1ccc(CC(C=O)NC(=O)[C@@H](NC(=O)[C@H](Cc2ccc(OC)cc2)NC(=O)CC(C)C)C(C)C)cc1 (stereo partly specified) (Isovaleryl-Tyr(Me)-Val-[ξY](Me)-aldehyde)	6.92	4.25	4.43
COc1ccc(CC(C=O)NC(=O)[C@@H](NC(=O)[C@H](Cc2ccc(O)cc2)NC(=O)CC(C)C)C(C)C)cc1 (stereo partly drawn) (Isovaleryl-Tyr-Val-[ξY](Me)-aldehyde)	6.72	4.68	4.68
CC(C)[C@H](NC(=O)[C@H](Cc1ccc(O)cc1)NC(=O)Cc1ccccc1)C(=O)NC(C=O)Cc1ccc(O)cc1 (stereo partly drawn) (PhAc-Tyr-Val-[ξY]-aldehyde)	7.57	4.80	5.70
CC(C)CC(=O)N[C@@H](Cc1ccc(O)cc1)C(=O)N[C@H](C(=O)NC(C=O)Cc1ccc(O)cc1)C(C)C (stereo partly drawn) [TYROPEPTIN A] (Isovaleryl-Tyr-Val-[ξY]-aldehyde)	6.85	4.17	5.30
